From US9963452B2, “Methods, compounds, and compositions for inhibition of ROS” (AUGUSTA PHARMACEUTICALS INC., priority 2013, dated 2018)

Target: ROS (Homo sapiens, UniProt P08922)
Test: In vitro ROS enzymatic reaction assay (HTRF, Cisbio)
Format: biochemical
Set-up: ROS or EGFR enzyme, 0.008 ng/ul
Details: for inhibition at 5 µM / Kinase Inhib. 5 uM (%) / Kinase Inhib. 10 uM (%) / inhibition at 10 µM: ROS kinase; for inhibition at 5 µM / Kinase Inhib. 5 uM (%): compound at 5 uM; for inhibition at 5 µM: read-out: Kinase Inhib. 5 uM (%); for Kinase Inhib. 10 uM (%) / inhibition at 10 µM: compound at 10 uM; for inhibition at 10 µM: read-out: Kinase Inhib. 10 uM (%)
Experimental: The ROS enzymatic reactions were carried out with a high throughput screening platform for phosphor-detection of kinase activity. This platform based on homogeneous time resolved fluorescence (HTRF) technology from Cisbio Bioassays, Inc. (Cisbio). […] The reaction was allowed to proceed for 30 minutes at room temperature. An equal volume of detection buffer was then added to the reaction mix.

Chain of ROS (P08922 28-2347): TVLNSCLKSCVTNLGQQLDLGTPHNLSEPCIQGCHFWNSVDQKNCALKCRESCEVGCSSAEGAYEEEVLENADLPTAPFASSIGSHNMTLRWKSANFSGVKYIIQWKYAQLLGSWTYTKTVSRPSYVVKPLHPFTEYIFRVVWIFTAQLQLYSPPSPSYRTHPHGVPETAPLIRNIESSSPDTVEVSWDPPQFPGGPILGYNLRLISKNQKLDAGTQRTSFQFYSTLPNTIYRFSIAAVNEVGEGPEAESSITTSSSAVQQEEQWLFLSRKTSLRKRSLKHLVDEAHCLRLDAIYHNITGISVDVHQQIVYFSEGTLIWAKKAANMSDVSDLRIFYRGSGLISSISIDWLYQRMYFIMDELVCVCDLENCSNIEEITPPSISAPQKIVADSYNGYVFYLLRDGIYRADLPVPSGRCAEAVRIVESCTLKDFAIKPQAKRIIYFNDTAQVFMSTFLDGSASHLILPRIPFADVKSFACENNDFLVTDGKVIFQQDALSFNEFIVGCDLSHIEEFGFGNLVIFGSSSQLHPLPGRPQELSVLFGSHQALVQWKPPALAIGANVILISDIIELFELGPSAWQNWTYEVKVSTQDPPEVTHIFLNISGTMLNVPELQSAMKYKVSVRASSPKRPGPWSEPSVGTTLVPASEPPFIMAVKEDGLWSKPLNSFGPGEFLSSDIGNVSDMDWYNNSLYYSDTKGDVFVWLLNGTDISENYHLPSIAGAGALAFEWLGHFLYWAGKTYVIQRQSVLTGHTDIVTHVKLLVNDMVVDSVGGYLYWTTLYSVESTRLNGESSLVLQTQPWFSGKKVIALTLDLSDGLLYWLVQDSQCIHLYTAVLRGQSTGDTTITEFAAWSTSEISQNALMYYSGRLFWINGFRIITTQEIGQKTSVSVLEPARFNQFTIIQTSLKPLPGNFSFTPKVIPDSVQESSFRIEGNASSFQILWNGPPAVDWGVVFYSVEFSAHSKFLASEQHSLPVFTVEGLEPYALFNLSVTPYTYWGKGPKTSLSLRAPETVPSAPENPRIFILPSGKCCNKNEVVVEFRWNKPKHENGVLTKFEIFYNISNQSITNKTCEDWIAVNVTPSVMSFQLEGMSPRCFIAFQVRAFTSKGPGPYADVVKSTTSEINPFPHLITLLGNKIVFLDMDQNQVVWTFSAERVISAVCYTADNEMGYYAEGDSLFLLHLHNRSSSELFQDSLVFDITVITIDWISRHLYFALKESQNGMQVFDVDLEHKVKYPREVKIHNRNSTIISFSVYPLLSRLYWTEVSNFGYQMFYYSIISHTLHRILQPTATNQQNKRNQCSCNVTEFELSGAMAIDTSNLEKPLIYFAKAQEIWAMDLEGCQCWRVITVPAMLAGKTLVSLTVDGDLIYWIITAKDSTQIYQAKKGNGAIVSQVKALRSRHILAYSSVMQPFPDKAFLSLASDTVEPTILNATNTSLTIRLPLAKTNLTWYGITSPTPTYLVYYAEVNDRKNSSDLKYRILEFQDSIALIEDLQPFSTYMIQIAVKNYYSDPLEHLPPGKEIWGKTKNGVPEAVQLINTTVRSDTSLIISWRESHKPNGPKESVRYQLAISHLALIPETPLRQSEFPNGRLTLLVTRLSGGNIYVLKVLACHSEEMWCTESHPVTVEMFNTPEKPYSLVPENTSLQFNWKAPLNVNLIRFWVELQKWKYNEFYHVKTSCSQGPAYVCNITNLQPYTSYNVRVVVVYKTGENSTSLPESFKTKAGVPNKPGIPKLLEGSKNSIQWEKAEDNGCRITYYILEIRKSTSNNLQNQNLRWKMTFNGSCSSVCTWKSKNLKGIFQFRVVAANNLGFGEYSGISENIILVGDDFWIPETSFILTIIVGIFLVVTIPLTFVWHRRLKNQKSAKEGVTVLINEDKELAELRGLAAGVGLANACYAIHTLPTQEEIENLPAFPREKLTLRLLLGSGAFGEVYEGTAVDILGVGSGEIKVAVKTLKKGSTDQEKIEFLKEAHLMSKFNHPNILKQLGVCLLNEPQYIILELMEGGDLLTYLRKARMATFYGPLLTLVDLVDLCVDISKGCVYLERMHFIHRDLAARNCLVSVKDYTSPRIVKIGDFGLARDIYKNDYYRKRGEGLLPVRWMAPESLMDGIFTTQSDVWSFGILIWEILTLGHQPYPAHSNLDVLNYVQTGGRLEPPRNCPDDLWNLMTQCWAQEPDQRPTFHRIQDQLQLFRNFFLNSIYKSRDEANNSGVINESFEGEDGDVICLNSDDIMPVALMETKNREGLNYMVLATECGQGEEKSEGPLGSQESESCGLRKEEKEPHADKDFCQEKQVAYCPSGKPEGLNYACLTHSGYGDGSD

Row | Compound | IC50 [nM] | inhibition at 5 µM [%] | further results
1 | CC(C)c1nc(Nc2ccc3ncsc3c2)nc(N2CCCC2)n1 [drawing 314] | > 5000 | 20.9 | 
2 | CC(C)c1nc(Nc2ccc(N)cc2)nc(Nc2ccc3ncsc3c2)n1 | 746 |  | 
3 | Nc1nc(Nc2ccc(C(=O)N3CCCC4CCCCC43)cc2)cc(Nc2ccc3ncsc3c2)n1 (stereo not drawn) |  |  | Kinase Inhib. 5 uM (%): 27.92%
4 | Cc1cc(C)n(-c2cccc(C(=O)NCC3Cc4cc(Cl)cc(-c5cnccn5)c4O3)c2)n1 (stereo not drawn) | > 100000 |  | Kinase Inhib. 10 uM (%): 29.68%
5 | CC(C)c1nc(Nc2cccc(OC(F)(F)F)c2)nc(Nc2cc(C3CC3)n[nH]2)n1 | 40 |  | 
6 | CC(C)c1nc(NCc2ccccc2)nc(Nc2ccc3ncsc3c2)n1 | 358 |  | 
7 | O=C(NCCN1CCOCC1)c1cccc(Nc2nccc(Nc3ccc4ncsc4c3)n2)c1 [drawing 274] |  | 101 | 
8 | NC(=O)c1c(NC(=O)Nc2ccccc2)sc2c1CCCC2 [drawing 264] |  | 37.1 | 
9 | CCOC(=O)c1ccc(NC(=O)CCn2ccc3ccccc32)cc1 [drawing 336] |  |  | inhibition at 10 µM: 24.5%
10 | Cc1[nH]c2nc(NCc3cccc([N+](=O)[O-])c3)nn2c(=O)c1Cc1ccccc1 [drawing 222] |  |  | Kinase Inhib. 10 uM (%): 23.83%
11 | CC(C)c1nc(Nc2cccc(Br)c2)nc(Nc2ccc3ncsc3c2)n1 | 86 |  | 
12 | O=C(COc1ccccc1)NCC(c1cccs1)S(=O)(=O)c1ccc(Cl)cc1 (stereo not drawn) [drawing 290] | 1780 | 83.8 | inhibition at 10 µM: 102%
13 | CC(C)(CO)NC(=O)c1cccc(Nc2nccc(Nc3ccc4ncsc4c3)n2)c1 [drawing 271] | 361 | 96.3 | 
14 | O=C(c1ccccc1)n1nc(-c2ccco2)nc1NCc1ccc(Cl)cc1 [drawing 295] |  | 26.6 | 
15 | COc1ccccc1[C@@H]1C(C#N)=C(N)Oc2n[nH]c(C(F)(F)F)c21 | 1700 |  | inhibition at 10 µM: 61.6%
16 | Cc1cccc(Nc2nccc(Nc3cccc(C(=O)NCCN4CCOCC4)c3)n2)c1 [drawing 244] | 2100 | 98.4 | 
17 | Oc1[nH]nc2nnc(-c3ccccc3)c(-c3ccccc3)c12 [drawing 257] | 20400 |  | inhibition at 10 µM: 35.6%
18 | COc1cccc(Nc2nc(N)c(C(=O)c3c(C)[nH]c4ccccc34)s2)c1 [drawing 247] |  |  | inhibition at 10 µM: 28.5%
19 | Cc1ccc(NC(=O)CCn2ccc3ccccc32)cc1 [drawing 335] |  |  | inhibition at 10 µM: 27.5%
20 | O=C(CCn1ccc2ccccc21)Nc1cnccn1 [drawing 340] |  |  | inhibition at 10 µM: 14.3%
21 | O=C(c1cccc(-c2noc(-c3n[nH]c4c3CCCC4)n2)c1)N1CCCCC1 [drawing 248] | 4100 |  | inhibition at 10 µM: 39.5%
22 | CCC(C)(C)NC(=O)c1cccc(Nc2nccc(Nc3ccc4ncsc4c3)n2)c1 [drawing 243] | 620 | 101 | 
23 | O=C1NCCN1CCN1C(=O)c2ccccc2N[C@H]1c1ccccc1 [drawing 254] |  |  | inhibition at 10 µM: 20.3%
24 | O=c1cc(Oc2ccccc2)c(-c2nc[nH]n2)nn1-c1ccccc1 [drawing 228] |  |  | Kinase Inhib. 10 uM (%): 20.40%
25 | Cc1cccc(Nc2nccc(Nc3cccc(C(=O)Nc4ccc(F)cc4)c3)n2)c1 [drawing 245] |  | 47.3 | 
26 | CN1CCN(C(=O)c2cccc(Nc3nccc(Nc4ccc5ncsc5c4)n3)c2)CC1 [drawing 278] | 140 | 99.4 | 

Row | Compound | IC50 [nM] | inhibition at 5 µM [%] | further results
27 | CC(C)c1nc(Nc2ccc3ncsc3c2)nc(NC2CCCCC2)n1 | 1500 |  | 
28 | O=C(c1ccccc1)c1nc(-c2ccco2)[nH]c1NCc1ccccc1 |  |  | Kinase Inhib. 5 uM (%): 25.92%
29 | Cc1cc(-c2ccccc2)c2ccc(N)nc2n1 [drawing 343] |  |  | inhibition at 10 µM: 28.9%
30 | O=C(NCc1cccs1)c1cccc(Nc2nccc(Nc3ccc4ncsc4c3)n2)c1 [drawing 273] | 435 | 101 | 
31 | Cc1cccc(Nc2nccc(Nc3cccc(C(=O)NCc4ccccc4F)c3)n2)c1 [drawing 275] |  | 33.3 | 
32 | O=c1c(O)c(-c2ccc(O)c(O)c2)oc2cc(O)cc(O)c12 [drawing 269] | 50 | 99.6 | inhibition at 10 µM: 98.2%
33 | CCN(CC)CCNC(=O)c1cccc(Nc2nccc(Nc3ccc4ncsc4c3)n2)c1 [drawing 236] |  | 102 | 
34 | Cc1ccc(F)cc1S(=O)(=O)Nc1cccc(C(=O)OCC(=O)NC2CCCCC2)c1 [drawing 267] |  | 20 | 
35 | Nc1nc(Nc2ccc(C(=O)N3CCCCCC3)cc2)cc(Nc2ccc3ncsc3c2)n1 [drawing 272] |  |  | Kinase Inhib. 5 uM (%): 22.67%
36 | CC(C)c1nc(Nc2cccc(Br)c2)nc(Nc2cc(C3CC3)n[nH]2)n1 | 38 |  | 
37 | Cc1cccc(Nc2nccc(Nc3cccc(C(=O)NCCCN4CCOCC4)c3)n2)c1 [drawing 279] |  | 92.9 | 
38 | O=C(NNc1cc(C(F)(F)F)ccc1Cl)c1cccnc1Oc1ccccc1 [drawing 253] | > 100000 |  | inhibition at 10 µM: 31.2%
39 | CC(C)CN(CC(C)C)C(=O)c1cccc(Nc2nccc(Nc3ccc4ncsc4c3)n2)c1 [drawing 287] | 1300 | 99.6 | 
40 | O=C(c1cccc(Nc2nccc(Nc3ccc4ncsc4c3)n2)c1)N1CCCCC1 [drawing 301] | 392 | 100 | 
41 | CSc1sc(-c2n[nH]cc2Br)c2c1C(=O)CC(C)(C)C2 [drawing 259] | 10000 |  | inhibition at 10 µM: 34%
42 | NS(=O)(=O)c1ccc(CCNC(=O)c2cc(-c3cccs3)nc3ccccc23)cc1 [drawing 221] |  |  | inhibition at 10 µM: 21.5%
43 | Cc1cccc(Nc2nccc(Nc3cccc(C(=O)NCc4ccc(F)cc4)c3)n2)c1 [drawing 242] |  | 23.7 | 
44 | COc1ccc(C(NC(=O)c2n[nH]c(-c3ccccc3)c2C)c2ccncc2)cc1 (stereo not drawn) |  |  | Kinase Inhib. 5 uM (%): 31.08%
45 | Clc1ccc2nc(NCc3ccccn3)nc(-c3ccccc3)c2c1 [drawing 220] |  |  | inhibition at 10 µM: 25%
46 | CC1=NNC(=O)/C1=C\c1cn(-c2ccccc2)nc1-c1ccccc1 [drawing 266] | 1220 | 62 | 
47 | COc1ccccc1C1C(C#N)=C(N)Oc2[nH]nc(C)c21 (stereo not drawn) |  |  | Kinase Inhib. 5 uM (%): 27.58%
48 | Cc1ccc(NC=C2C(=O)NN=C2c2ccccc2)cc1 [drawing 233] |  | 43.7 | 
49 | Cc1cccc(Nc2ccnc(Nc3cccc(C(=O)N4CC=CCC4)c3)n2)c1 [drawing 234] | 80 | 94.2 | 
50 | COc1cccc(Nc2cc(Nc3cccc(C(=O)N4CCN(C(C)=O)CC4)c3)nc(N)n2)c1 [drawing 240] |  | 22.3 | 
51 | C[C@H](O)CN(C[C@H](C)O)C(=O)c1cccc(Nc2nccc(Nc3ccc4ncsc4c3)n2)c1 [drawing 283] |  | 101 | 
52 | NC(Cc1ccccc1)C(=O)n1ccc2cccnc21 (stereo not drawn) [drawing 342] |  |  | inhibition at 10 µM: 26.9%

Row | Compound | IC50 [nM] | inhibition at 5 µM [%] | further results
53 | O=C(CC1=Nc2cccc3cccc(c23)NC1=O)NCc1cccc(I)c1 [drawing 346] |  |  | inhibition at 10 µM: 22.5%
54 | O=C(c1ccc(Nc2ncc(Br)c(Nc3ccc4ncsc4c3)n2)cc1)N1CCCCC1 | 620 |  | 
55 | Nc1cccc2cccc(N=C(CC(=O)O)C(=O)O)c12 [drawing 344] |  |  | inhibition at 10 µM: 24.6%
56 | Cc1cccc(Nc2nccc(Nc3cccc(C(=O)NC4CCN(C)CC4)c3)n2)c1 [drawing 285] | 1420 | 98.6 | 
57 | O=C1NN=C(c2ccccc2)/C1=C1\OC(c2ccccc2)=CS1 [drawing 255] | 160 | 69.2 | inhibition at 10 µM: 77.8%
58 | FC(F)(F)c1cc(-n2c(Cc3cccc4ccccc34)n[nH]c2=S)cc(C(F)(F)F)c1 [drawing 260] |  |  | Kinase Inhib. 5 uM (%): 28.49%
59 | CC(C)(C)c1cc(C(=O)NNc2cccc(Cl)c2)n(Cc2ccccc2)n1 [drawing 252] |  |  | Kinase Inhib. 10 uM (%): 27.16%
60 | CCOC(Nc1cc(-c2sccc2-n2c(C)ccc2C)[nH]n1)OCC [drawing 227] |  |  | Kinase Inhib. 10 uM (%): 27.57%
61 | Nc1nc(N)n(-c2ccccc2)/c(=N/c2ccccc2)n1 [drawing 258] | > 100000 |  | inhibition at 10 µM: 34.5%
62 | C[C@@H](Oc1cc(-c2cnn(C3CCNCC3)c2)cnc1N)c1c(Cl)ccc(F)c1Cl [drawing 354] |  | 100 | 
63 | Nc1nc(Nc2ccc(C(=O)NCCc3ccncc3)cc2)cc(Nc2ccc3ncsc3c2)n1 [drawing 280] |  | 61.1 | 
64 | CC(C)c1nc(NCC2CCCCC2)nc(Nc2ccc3ncsc3c2)n1 | 528 |  | 
65 | O=C(NCCc1ccccc1)c1cccc(Nc2nccc(Nc3ccc4ncsc4c3)n2)c1 [drawing 281] |  |  | Kinase Inhib. 5 uM (%): 94.23%
66 | Nc1nc(Nc2ccc(C(=O)NCc3ccco3)cc2)cc(Nc2ccc3ncsc3c2)n1 [drawing 238] | 3810 | 49 | 
67 | Cc1ccc(-n2cc(-c3cccs3)nc2SCc2n[nH]c(=S)n2Cc2ccccc2)cc1 [drawing 256] |  |  | Kinase Inhib. 10 uM (%): 28.13%
68 | O=C(NCc1ccc(F)cc1)c1cccc(Nc2nccc(Nc3ccc4ncsc4c3)n2)c1 [drawing 286] | 582 | 101 | 
69 | CC(C)c1nc(Nc2ccc3ncsc3c2)nc(N2CCOCC2)n1 [drawing 315] | > 5000 | 23.5 | 
70 | CC(C)c1nc(Nc2ccc(Br)cc2)nc(Nc2cc(C3CC3)n[nH]2)n1 | 67 |  | 
71 | COc1ccccc1-c1cc(C(F)F)n2ncc(C(=O)NCc3cccnc3)c2n1 [drawing 224] | 4000 |  | inhibition at 10 µM: 35%
72 | CC(C)c1nc(Nc2ccc(C(=O)N3CCOCC3)cc2)nc(Nc2ccc3ncsc3c2)n1 [drawing 323] | 333 | 65.7 | 
73 | O=C(NCC1CCCCC1)c1cccc(Nc2nccc(Nc3ccc4ncsc4c3)n2)c1 [drawing 270] |  | 32.6 | 
74 | COc1ccc(C(F)(F)F)cc1NC(=O)CCn1ccc2ccccc21 [drawing 339] |  |  | inhibition at 10 µM: 26.4%
75 | O=C(NCC1Cc2cc(-c3cncnc3)cc(Cl)c2O1)c1cccc(Cn2cccn2)c1 (stereo not drawn) | > 100000 |  | Kinase Inhib. 10 uM (%): 30.25%
76 | CCN(CCO)c1nc(Nc2ccc(F)cc2)c2cnn(-c3ccccc3)c2n1 [drawing 249] | 16800 |  | Kinase Inhib. 10 uM (%): 38.92%
77 | O=C(NCC1CCCO1)c1cccc(Nc2nccc(Nc3ccc4ncsc4c3)n2)c1 (stereo not drawn) |  | 101 | 
